How the values were obtained:
Aurora-2 = target: T1, Aurora-2 (Homo sapiens, UniProt O14965); experiment: Inhibition assay of Aurora-2 activity (SPA); type: biochemical
T1 sequence (O14965 1-403): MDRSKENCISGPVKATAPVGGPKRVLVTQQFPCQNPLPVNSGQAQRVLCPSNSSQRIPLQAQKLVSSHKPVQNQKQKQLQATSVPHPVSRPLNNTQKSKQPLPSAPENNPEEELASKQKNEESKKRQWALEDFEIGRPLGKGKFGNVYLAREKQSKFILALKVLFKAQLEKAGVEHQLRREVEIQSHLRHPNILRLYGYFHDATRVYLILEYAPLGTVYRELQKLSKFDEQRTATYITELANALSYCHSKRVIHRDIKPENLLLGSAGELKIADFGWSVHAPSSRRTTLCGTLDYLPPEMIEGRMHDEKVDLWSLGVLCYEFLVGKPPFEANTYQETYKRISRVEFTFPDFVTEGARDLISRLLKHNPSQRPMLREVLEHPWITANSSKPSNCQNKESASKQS
Experimental: The inhibiting activity and the potency of selected compounds is determined through a method of assay based on the use of the SPA technology (Amersham Pharmacia Biotech).
The assay consists of the transfer of radioactivity labelled phosphate moiety by the kinase to a biotinylated substrate. The resulting 33P-labelled biotinylated product is allowed to bind to streptavidin-coated SPA beads (biotin capacity 130 pmol/mg), and light emitted was measured in a scintillation counter.
Inhibition Assay of Aurora-2 Activity
Kinase reaction: 8 μM biotinylated peptide (4 repeats of LRRWSLG), 10 μM ATP (0.5 uCi P^33γ-ATP), 7.5 ng Aurora 2, inhibitor in a final volume of 30 μl buffer (HEPES 50 mM pH 7.0, MgCl2 10 mM, 1 mM DTT, 0.2 mg/mL BSA, 3 μM orthovanadate) were added to each well of a 96 U bottom well plate. After 60 minutes at room temperature incubation, reaction was stopped and biotinylated peptide captured by adding 100 μl of bead suspension.
Stratification: 100 μl of CsCl 5 M were added to each well and let stand 4 hour before radioactivity was counted in the Top-Count instrument.
IC50 determination: inhibitors were tested at different concentrations ranging from 0.0015 to 10 μM. […]

[1] = tested on: human colon cancer cell line HCT-116; experiment: In vitro cell proliferation assay; type: cell-based; conditions: HCT-116, 72 hours of treatment, read-out: Cell Antiproliferation IC50
Experimental: The compounds of the invention were further tested, in vitro to assess the anti-proliferative effect onto cell cultures.
In Vitro Cell Proliferation Assay
The human colon cancer cell line HCT-116 was seeded at 5000 cells/cm^2 in 24 wells plate (Costar) using F12 medium (Gibco) supplemented with 10% FCS (EuroClone, Italy) 2 mM L-glutamine and 1% penicillin/streptomycin and maintained at 37° C., 5% CO2 and 96% relative humidity. The following day, plates were treated in duplicates with 5 ul of an appropriate dilution of compounds starting from a 10 mM stock in DMSO. Two untreated control wells were included in each plate. After 72 hours of treatment, medium was withdrawn and cells detached from each well using 0.5 mL of 0.05% (w/v) Trypsin, 0.02% (w/v) EDTA (Gibco) Samples were diluted with 9.5 mL of Isoton (Coulter) and counted using a Multisizer 3 cell counter (Beckman Coulter). Data were evaluated as percent of the control wells, % of CTR=(Treated−Blank)/(Control−Blank). IC50 values were calculated by LSW/Data Analysis using Microsoft Excel sigmoidal curve fitting.

CC(C)(NC(=O)c1cc2[nH]nc(NC(=O)c3ccccc3NC(=O)c3ccc[nH]3)c2o1)c1ccccc1 [(1), 3-{2-[(1H-Pyrrole-2-carbonyl)-amino]-benzoylamino}-1H-furo[3,2-c]pyrazole-5-carboxylic acid (1-methyl-1-phenyl-ethyl)-amide]
IC50 (Aurora-2): 6 nM
IC50 [1]: 5 nM
